Laboratory results: patent US20220306659A1, “COMPOUND INHIBITING AND INDUCING DEGRADATION OF EGFR AND ALK” (BEIJING TIDE PHARMACEUTICAL CO., LTD., priority 2019, published 2022)

How the values were obtained:
[1] = target: Ba/F3(EGFR^Del19/T790M/C797S) cells (Homo sapiens, UniProt P00533, DEL746-750/T790M/C797S, cells depend on it); experiment: Assay of activity on Ba/F3 cells (CTG, 72 h); format: cell-based; conditions: read-out: IC50 (nM) Ba/F3 (EGFR^Del19/T790M/C797S)
Method: (§1) (2) A compound stock solution was prepared, and then diluted 3× to obtain a compound dilution. 30 nL of the compound dilution was added to a 384-well plate by Echo (Labcyte, Echo550). The cells were incubated in an incubator at 37° C. and 5% CO2 for 72 h.
(§2) The percent inhibition rate (% inhibition) was calculated by the following formula
(§3) LUMcmpd: Luminescence value of assay compound.
(§4) LUMpositive: Average LUM value of positive drug at a concentration of 10 μM.
(§5) LUMvehicle. Average LUM value of negative control group without drug treatment.
(§6) The nonlinear regression curve (dose response-variable slope) between the value of inhibition rate (%) and the logarithm of compound concentration was fitted with graphpad prism 8.0, the effect dose curve of compound was drawn, and the IC50 value was calculated.
(§7) Y=Bottom+(Top−Bottom)/(1+1^((LogIC50−X)*HillSlope))
(§8) X-axis: logarithm of compound concentration; Y axis: inhibition rate ([…]).

[2] = target: Ba/F3(EGFR^L858R/T790M/C797S) cells (Homo sapiens, UniProt P00533, T790M/C797S/L858R, cells depend on it); experiment: Assay of activity on Ba/F3 cells (CTG, 72 h); format: cell-based; conditions: read-out: IC50 (nM) Ba/F3 (EGFR^L858R/T790M/C797S)
Method: as §1, §2, §3, §4, §5, §6, §7, §8

Sequence of Ba/F3(EGFR^Del19/T790M/C797S) cells (P00533 with tags, fused parts or gaps DEL746-750/T790M/C797S): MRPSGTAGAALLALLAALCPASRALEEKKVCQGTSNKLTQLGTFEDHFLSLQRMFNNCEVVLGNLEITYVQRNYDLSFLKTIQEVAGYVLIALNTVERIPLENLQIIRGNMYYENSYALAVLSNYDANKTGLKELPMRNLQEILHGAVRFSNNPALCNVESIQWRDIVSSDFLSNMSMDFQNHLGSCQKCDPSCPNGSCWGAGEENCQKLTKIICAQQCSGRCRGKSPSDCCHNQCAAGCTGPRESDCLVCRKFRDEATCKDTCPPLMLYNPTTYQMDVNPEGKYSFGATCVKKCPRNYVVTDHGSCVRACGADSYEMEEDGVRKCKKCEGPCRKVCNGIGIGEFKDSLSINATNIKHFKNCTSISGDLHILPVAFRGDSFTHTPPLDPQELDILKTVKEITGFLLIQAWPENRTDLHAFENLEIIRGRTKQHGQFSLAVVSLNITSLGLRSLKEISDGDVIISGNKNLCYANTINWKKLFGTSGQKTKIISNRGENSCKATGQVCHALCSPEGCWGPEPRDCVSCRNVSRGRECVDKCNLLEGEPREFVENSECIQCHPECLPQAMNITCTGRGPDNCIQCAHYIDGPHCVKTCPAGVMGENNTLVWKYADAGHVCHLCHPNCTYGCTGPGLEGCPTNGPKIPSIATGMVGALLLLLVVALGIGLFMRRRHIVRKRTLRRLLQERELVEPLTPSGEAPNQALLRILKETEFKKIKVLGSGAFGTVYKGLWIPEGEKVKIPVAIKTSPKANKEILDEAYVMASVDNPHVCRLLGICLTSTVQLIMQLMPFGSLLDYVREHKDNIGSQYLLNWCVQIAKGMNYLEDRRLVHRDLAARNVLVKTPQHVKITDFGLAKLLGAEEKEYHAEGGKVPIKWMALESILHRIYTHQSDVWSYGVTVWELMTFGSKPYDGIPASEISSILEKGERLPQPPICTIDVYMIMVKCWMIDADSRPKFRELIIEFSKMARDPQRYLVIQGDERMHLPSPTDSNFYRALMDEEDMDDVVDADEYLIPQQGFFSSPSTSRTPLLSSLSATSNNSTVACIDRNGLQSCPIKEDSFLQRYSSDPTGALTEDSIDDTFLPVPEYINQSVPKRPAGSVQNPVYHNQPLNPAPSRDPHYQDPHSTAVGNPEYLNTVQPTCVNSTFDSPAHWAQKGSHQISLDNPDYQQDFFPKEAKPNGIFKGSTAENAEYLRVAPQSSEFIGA
Sequence of Ba/F3(EGFR^L858R/T790M/C797S) cells (P00533 whole entry T790M/C797S/L858R): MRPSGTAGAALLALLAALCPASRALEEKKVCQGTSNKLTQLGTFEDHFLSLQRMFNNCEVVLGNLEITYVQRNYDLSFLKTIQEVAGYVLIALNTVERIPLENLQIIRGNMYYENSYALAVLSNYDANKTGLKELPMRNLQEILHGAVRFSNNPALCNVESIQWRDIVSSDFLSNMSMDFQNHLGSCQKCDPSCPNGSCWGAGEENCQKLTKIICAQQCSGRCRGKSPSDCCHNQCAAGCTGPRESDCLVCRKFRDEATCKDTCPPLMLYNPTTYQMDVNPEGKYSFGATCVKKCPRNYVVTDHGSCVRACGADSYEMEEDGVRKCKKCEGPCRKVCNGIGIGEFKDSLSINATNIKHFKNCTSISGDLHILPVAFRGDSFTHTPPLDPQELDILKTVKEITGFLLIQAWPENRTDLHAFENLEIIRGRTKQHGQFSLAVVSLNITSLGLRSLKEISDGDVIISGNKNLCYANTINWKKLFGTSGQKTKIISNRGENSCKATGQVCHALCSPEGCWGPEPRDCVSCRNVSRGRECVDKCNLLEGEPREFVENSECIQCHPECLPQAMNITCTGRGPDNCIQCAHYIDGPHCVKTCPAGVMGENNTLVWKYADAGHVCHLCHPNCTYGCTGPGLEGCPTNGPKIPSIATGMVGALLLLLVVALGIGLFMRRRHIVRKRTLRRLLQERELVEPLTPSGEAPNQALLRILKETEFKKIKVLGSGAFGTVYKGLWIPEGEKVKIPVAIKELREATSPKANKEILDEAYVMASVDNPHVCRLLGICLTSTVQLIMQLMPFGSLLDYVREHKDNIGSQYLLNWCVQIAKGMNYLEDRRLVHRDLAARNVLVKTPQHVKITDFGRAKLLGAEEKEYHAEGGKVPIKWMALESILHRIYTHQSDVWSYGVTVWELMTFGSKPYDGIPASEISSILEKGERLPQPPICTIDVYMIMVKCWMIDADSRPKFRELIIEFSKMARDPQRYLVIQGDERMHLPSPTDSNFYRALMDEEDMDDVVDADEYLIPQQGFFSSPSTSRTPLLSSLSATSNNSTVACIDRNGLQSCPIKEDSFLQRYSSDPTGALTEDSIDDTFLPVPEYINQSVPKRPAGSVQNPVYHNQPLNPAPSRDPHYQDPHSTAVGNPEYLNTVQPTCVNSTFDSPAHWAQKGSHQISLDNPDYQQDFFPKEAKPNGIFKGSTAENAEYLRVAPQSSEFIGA

| GI50 [1] [nM] | GI50 [2] [nM] | Structure (SMILES) |
| --- | --- | --- |
| > 300 | > 300 | COc1cc(N2CCC(N3CCNCC3)CC2)ccc1Nc1ncc(Cl)c(Nc2ccccc2P(C)(C)=O)n1 [Compound A1-4, (2-((5-Chloro-2-((2-methoxy-4-(4-(piperazin-1-yl)piperidin-1-yl)phenyl)amino)pyrimidin-4-yl)amino)phenyl)dimethyl phosphorus oxide] |
| – | > 300 | COc1cc(N2CCC(N3CCN(CCCCCCCOC4CN(c5cccc6c5C(=O)N(C5CCC(=O)NC5=O)C6=O)C4)CC3)CC2)ccc1Nc1ncc(Cl)c(Nc2ccccc2P(C)(C)=O)n1 (stereo not drawn) [Compound C150, 4-(3-((7-(4-(1-(4-((5-chloro-4-((2-(dimethylphosphoryl)phenyl)amino)pyrimidin-2-yl)amino)-3-methoxyphenyl)piperidin-4-yl)piperazin-1-yl)heptyl)oxy)azetidin-1-yl)-2-(2,6-dioxopiperidin-3-yl)isoindoline-1,3-dione] |
| > 300 | > 300 | COc1cc(N2CCC(N3CCN(CCCCCn4cc(-c5cccc6c5CN(C5CCC(=O)NC5=O)C6=O)cn4)CC3)CC2)ccc1Nc1ncc(Cl)c(Nc2ccccc2P(C)(C)=O)n1 (stereo not drawn) [Compound C162, 3-(4-(1-(5-(4-(1-(4-((5-chloro-4-((2-(dimethylphosphoryl)phenyl)amino)pyrimidin-2-yl)amino)-3-methoxyphenyl)piperidin-4-yl)piperazin-1-yl)pentyl)-1H-pyrazol-4-yl)-1-oxoisoindolin-2-yl)piperidine-2,6-dione] |
| 1 to 100 | 101 to 200 | COc1cc(N2CCC(N3CCN(CCCCCC#Cc4c(F)ccc5c4CN(C4CCC(=O)NC4=O)C5=O)CC3)CC2)ccc1Nc1ncc(Cl)c(Nc2ccccc2P(C)(C)=O)n1 (stereo not drawn) [Compound C166, 3-(4-(7-(4-(1-(4-((5-chloro-4-((2-(dimethylphosphoryl)phenyl)amino)pyrimidin-2-yl)amino)-3-methoxyphenyl)piperidin-4-yl)piperazin-1-yl)hept-1-yn-1-yl)-5-fluoro-1-oxoisoindolin-2-yl)piperidine-2,6-dione] |
| 1 to 100 | 1 to 100 | COc1cc(N2CCC3(CCN(CCOCC#Cc4cccc5c4CN(C4CCC(=O)NC4=O)C5=O)CC3)CC2)c(C)cc1Nc1ncc(Br)c(Nc2ccc3nccnc3c2P(C)(C)=O)n1 (stereo not drawn) [Compound C174, 3-(4-(3-(2-(9-(4-((5-bromo-4-((5-(dimethylphosphoryl)quinoxalin-6-yl)amino)pyrimidin-2-yl)amino)-5-methoxy-2-methylphenyl)-3,9-diazaspiro[5.5]undecan-3-yl)ethoxy)prop-1-yn-1-yl)-1-oxoisoindolin-2-yl)piperidine-2,6-dione] |
| 1 to 100 | 1 to 100 | COc1cc(N2CCC(N3CCN(CCCc4ccc(-c5ccc6c(c5)CN(C5CCC(=O)NC5=O)C6=O)cc4)CC3)CC2)ccc1Nc1ncc(Cl)c(Nc2ccccc2P(C)(C)=O)n1 (stereo not drawn) [Compound C235, 3-(5-(4-(3-(4-(1-(4-((5-chloro-4-((2-(dimethylphosphoryl)phenyl)amino)pyrimidin-2-yl)amino)-3-methoxyphenyl)piperidin-4-yl)piperazin-1-yl)propyl)phenyl)-1-oxoisoindolin-2-yl)piperidine-2,6-dione] |
| 1 to 100 | 1 to 100 | COc1cc(N2CCC(N3CCN(CCCCC#Cc4ccc(F)c5c4CN(C4CCC(=O)NC4=O)C5=O)CC3)CC2)ccc1Nc1ncc(Cl)c(Nc2ccccc2P(C)(C)=O)n1 (stereo not drawn) [Compound C244, 3-(4-(6-(4-(1-(4-((5-chloro-4-((2-(dimethylphosphoryl)phenyl)amino)pyrimidin-2-yl)amino)-3-methoxyphenyl)piperidin-4-yl)piperazin-1-yl)hex-1-yn-1-yl)-7-fluoro-1-oxoisoindolin-2-yl)piperidine-2,6-dione] |
| 1 to 100 | 1 to 100 | COc1cc(N2CCC(N3CCN(CCCCCOc4cccc5c4CN(C4CCC(=O)NC4=O)C5=O)CC3)CC2)c(C)cc1Nc1ncc(Br)c(Nc2ccc3nccnc3c2P(C)(C)=O)n1 (stereo not drawn) [Compound C246, 3-(4-((5-(4-(1-(4-((5-bromo-4-((5-(dimethylphosphoryl)quinoxalin-6-yl)amino)pyrimidin-2-yl)amino)-5-methoxy-2-methylphenyl)piperidin-4-yl)piperazin-1-yl)pentyl)oxy)-1-oxoisoindolin-2-yl)piperidine-2,6-dione] |
| 1 to 100 | – | COc1cc(N2CCC(N3CCN(CCCCCc4cccc5c4CN(C4CCC(=O)NC4=O)C5=O)CC3)CC2)c(C)cc1Nc1ncc(Br)c(Nc2ccc3nccnc3c2P(C)(C)=O)n1 (stereo not drawn) [Compound C285, 3-(4-(5-(4-(1-(4-((5-bromo-4-((5-(dimethylphosphoryl)quinoxalin-6-yl)amino)pyrimidin-2-yl)amino)-5-methoxy-2-methylphenyl)piperidin-4-yl)piperazin-1-yl)pentyl)-1-oxoisoindolin-2-yl)piperidine-2,6-dione] |
| 1 to 100 | – | COc1cc(N2CCC(N3CCN(CCCCCCc4cccc5c4CN(C4CCC(=O)NC4=O)C5=O)CC3)CC2)c(C)cc1Nc1ncc(Br)c(Nc2ccc3nccnc3c2P(C)(C)=O)n1 (stereo not drawn) [Compound C286, 3-(4-(6-(4-(1-(4-((5-bromo-4-((5-(dimethylphosphoryl)quinoxalin-6-yl)amino)pyrimidin-2-yl)amino)-5-methoxy-2-methylphenyl)piperidin-4-yl)piperazin-1-yl)hexyl)-1-oxoisoindolin-2-yl)piperidine-2,6-dione] |
| 1 to 100 | 1 to 100 | COc1cc(N2CCC3(CCN(CCCCCCc4cccc5c4CN(C4CCC(=O)NC4=O)C5=O)CC3)CC2)c(C)cc1Nc1ncc(Br)c(Nc2ccc3nccnc3c2P(C)(C)=O)n1 (stereo not drawn) [Compound C299, 3-(4-(6-(9-(4-((5-bromo-4-((5-(dimethylphosphoryl)quinoxalin-6-yl)amino)pyrimidin-2-yl)amino)-5-methoxy-2-methylphenyl)-3,9-diazaspiro[5.5]undecan-3-yl)hexyl)-1-oxoisoindolin-2-yl)piperidine-2,6-dione] |
| 1 to 100 | – | COc1cc(N2CCC(N3CCN(CCCCc4cccc5c4CN(C4CCC(=O)NC4=O)C5=O)CC3)CC2)c(C)cc1Nc1ncc(Br)c(Nc2ccc3nccnc3c2P(C)(C)=O)n1 (stereo not drawn) [Compound C301, 3-(4-(4-(4-(1-(4-((5-bromo-4-((5-(dimethylphosphoryl)quinoxalin-6-yl)amino)pyrimidin-2-yl)amino)-5-methoxy-2-methylphenyl)piperidin-4-yl)piperazin-1-yl)butyl)-1-oxoisoindolin-2-yl)piperidine-2,6-dione] |
| 1 to 100 | – | COc1cc(N2CCC3(CCN(CCCCc4cccc5c4CN(C4CCC(=O)NC4=O)C5=O)CC3)CC2)c(C)cc1Nc1ncc(Br)c(Nc2ccc3nccnc3c2P(C)(C)=O)n1 (stereo not drawn) [Compound C302, 3-(4-(4-(9-(4-((5-bromo-4-((5-(dimethylphosphoryl)quinoxalin-6-yl)amino)pyrimidin-2-yl)amino)-5-methoxy-2-methylphenyl)-3,9-diazaspiro[5.5]undecan-3-yl)butyl)-1-oxoisoindolin-2-yl)piperidine-2,6-dione] |
